# Reference: patent EP4596574A1, “GLP-1/GCG/GIP TRIPLE-RECEPTOR AGONIST AND USE THEREOF” (Sunshine Lake Pharma Co., Ltd., priority 2022, dated 2024)
# Starred links: 1 amine or outer side, 2 acyl side, 3 side chain; linkers in the order of their positions; H or OH if unused. Non-standard residues stand in square brackets, D forms with d. Residues, ends and D or L forms follow the SMILES beside them. Groups on a side chain read outwards from the residue. *: point of attachment. C18 diacid = O=C(O)CCCCCCCCCCCCCCCCC(=O)*; αMePhe(2-F) = C[C@](N)(Cc1ccccc1F)C(=O)O; γGlu = O=C(O)[C@H](CCC(=O)[*:2])N[*:1]; AEEA = NCCOCCOCC(=O)O; Aib = CC(C)(N)C(=O)O
# What was measured:
# Type in all cases: cell-based
# GLP-1R = biological target: T1, GLP-1R (Homo sapiens, UniProt P43220); assay: In vitro cell activity, cAMP production in HEK293 cells expressing GLP-1R; settings: HEK293-GLP-1R cells, cAMP; read-out: GLP-1R (EC50)
# T1 construct: expressed in transfected cells; host or cells: HEK293 (HEK293-GLP-1R)
# T1 sequence (P43220 24-463, species assumed): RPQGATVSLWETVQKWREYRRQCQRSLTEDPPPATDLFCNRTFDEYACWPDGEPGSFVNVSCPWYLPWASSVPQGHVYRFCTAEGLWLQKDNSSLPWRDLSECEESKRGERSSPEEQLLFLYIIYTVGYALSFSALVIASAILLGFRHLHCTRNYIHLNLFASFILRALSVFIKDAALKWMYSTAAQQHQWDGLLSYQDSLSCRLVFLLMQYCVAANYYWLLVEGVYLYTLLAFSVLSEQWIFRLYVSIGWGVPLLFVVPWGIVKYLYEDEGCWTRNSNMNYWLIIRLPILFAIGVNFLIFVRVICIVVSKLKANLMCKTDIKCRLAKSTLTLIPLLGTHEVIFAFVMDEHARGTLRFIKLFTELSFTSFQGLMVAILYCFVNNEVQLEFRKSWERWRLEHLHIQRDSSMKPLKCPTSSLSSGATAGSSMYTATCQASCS
# In short: (§1)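 HEK293 transfectants, 4×10^5 cells/mL, 384-well. Detection: cAMP-d2 + anti-cAMP cryptate 1:1, RT 1 h dark or 4 °C o/n. Read 665/620 nm; 4-parameter nonlinear fit → EC50.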
# GCGR = biological target: T2, GCGR (Homo sapiens, UniProt P47871); assay: In vitro cell activity, cAMP production in HEK293 cells expressing GCGR; settings: HEK293-GCGR cells, cAMP; read-out: GCGR (EC50)
# T2 construct: expressed in transfected cells; host or cells: HEK293 (HEK293-GCGR)
# T2 sequence (P47871 26-477, species assumed): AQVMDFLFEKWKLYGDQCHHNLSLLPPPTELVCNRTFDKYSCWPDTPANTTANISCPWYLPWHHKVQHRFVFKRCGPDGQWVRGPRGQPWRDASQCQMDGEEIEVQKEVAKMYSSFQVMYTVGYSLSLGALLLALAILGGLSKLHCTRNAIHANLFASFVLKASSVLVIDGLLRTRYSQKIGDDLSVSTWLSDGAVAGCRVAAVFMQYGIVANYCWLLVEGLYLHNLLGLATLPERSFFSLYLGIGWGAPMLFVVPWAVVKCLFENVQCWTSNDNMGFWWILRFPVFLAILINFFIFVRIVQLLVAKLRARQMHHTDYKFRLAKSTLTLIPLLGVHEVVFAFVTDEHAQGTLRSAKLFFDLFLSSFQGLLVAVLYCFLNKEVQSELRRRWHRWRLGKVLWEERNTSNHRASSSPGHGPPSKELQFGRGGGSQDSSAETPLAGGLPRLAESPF
# In short: as §1
# GIPR = biological target: T3, GIPR (Homo sapiens, UniProt P48546); assay: In vitro cell activity, cAMP production in HEK293 cells expressing GIPR; settings: HEK293-GIPR cells, cAMP; read-out: GIPR (EC50)
# T3 construct: expressed in transfected cells; host or cells: HEK293 (HEK293-GIPR)
# T3 sequence (P48546 22-466): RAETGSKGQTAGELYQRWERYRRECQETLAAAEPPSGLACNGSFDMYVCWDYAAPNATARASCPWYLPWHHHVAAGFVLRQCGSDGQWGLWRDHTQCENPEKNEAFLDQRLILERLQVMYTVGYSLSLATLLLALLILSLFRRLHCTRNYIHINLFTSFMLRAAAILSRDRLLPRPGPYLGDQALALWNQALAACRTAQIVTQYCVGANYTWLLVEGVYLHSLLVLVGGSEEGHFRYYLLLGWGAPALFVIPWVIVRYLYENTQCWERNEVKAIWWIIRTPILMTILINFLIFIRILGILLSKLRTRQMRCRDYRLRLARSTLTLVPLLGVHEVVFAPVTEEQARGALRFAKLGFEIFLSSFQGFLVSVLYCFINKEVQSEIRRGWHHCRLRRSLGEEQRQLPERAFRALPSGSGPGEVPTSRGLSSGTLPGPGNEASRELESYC
# In short: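 HEK293 cells expressing human GIPR, thawed and diluted to 4×10^5 cells/mL, are stimulated with test compound. cAMP is measured by HTRF competition between cAMP-d2 and anti-cAMP cryptate. EC50 comes from a four-parameter nonlinear fit of signal ratio against concentration.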
SMILES,EC50 (GLP-1R) [nM],EC50 (GCGR) [nM],EC50 (GIPR) [nM]
CC[C@H](C)[C@H](NC(=O)[C@H](Cc1ccccc1)NC(=O)[C@H](CC(=O)O)NC(=O)[C@H](CCCNC(=N)N)NC(=O)[C@H](CCC(N)=O)NC(=O)[C@H](C)NC(=O)[C@H](CCCCNC(=O)COCCOCCNC(=O)CC[C@H](NC(=O)CCCCCCCCCCCCCCCCCCC(=O)O)C(=O)O)NC(=O)[C@H](CCC(=O)O)NC(=O)[C@H](CC(=O)O)NC(=O)[C@H](CC(C)C)NC(=O)[C@H](CC(C)C)NC(=O)[C@@H](NC(=O)[C@H](CO)NC(=O)[C@H](Cc1ccc(O)cc1)NC(=O)[C@H](CC(=O)O)NC(=O)[C@H](CO)NC(=O)[C@@H](NC(=O)[C@](C)(Cc1ccccc1F)NC(=O)[C@@H](NC(=O)CNC(=O)[C@H](CCC(N)=O)NC(=O)C(C)(C)NC(=O)[C@@H](N)Cc1ccc(O)cc1)[C@@H](C)O)[C@@H](C)O)[C@@H](C)CC)C(=O)N[C@@H](CCC(=O)O)C(=O)N[C@@H](Cc1c[nH]c2ccccc12)C(=O)N[C@@H](CC(C)C)C(=O)N[C@@H](CC(C)C)C(=O)N[C@@H](CCC(=O)O)C(=O)NCC(=O)NCC(=O)N1CCC[C@H]1C(=O)N[C@@H](CO)C(=O)N[C@@H](CO)C(=O)NCC(=O)N[C@@H](C)C(=O)N1CCC[C@H]1C(=O)N1CCC[C@H]1C(=O)N1CCC[C@H]1C(=O)N[C@@H](CO)C(=O)O [HEC-PT64],0.6,3.57,0.248
CC[C@H](C)[C@H](NC(=O)[C@H](CC(C)C)NC(=O)[C@H](Cc1c[nH]c2ccccc12)NC(=O)[C@H](CCC(N)=O)NC(=O)[C@@H](NC(=O)[C@H](Cc1ccccc1)NC(=O)[C@H](C)NC(=O)[C@H](CCC(N)=O)NC(=O)[C@H](CCC(N)=O)NC(=O)[C@H](C)NC(=O)[C@H](CCCCNC(=O)COCCOCCNC(=O)CC[C@H](NC(=O)CCCCCCCCCCCCCCCCCCC(=O)O)C(=O)O)NC(=O)[C@H](CCC(=O)O)NC(=O)[C@H](CC(=O)O)NC(=O)[C@H](CC(C)C)NC(=O)[C@H](CC(C)C)NC(=O)[C@@H](NC(=O)[C@H](CO)NC(=O)[C@H](Cc1ccc(O)cc1)NC(=O)[C@H](CC(=O)O)NC(=O)[C@H](CO)NC(=O)[C@@H](NC(=O)[C@](C)(Cc1ccccc1F)NC(=O)[C@@H](NC(=O)CNC(=O)[C@H](CCC(N)=O)NC(=O)C(C)(C)NC(=O)[C@@H](N)Cc1ccc(O)cc1)[C@@H](C)O)[C@@H](C)O)[C@@H](C)CC)C(C)C)C(=O)N[C@@H](C)C(=O)NCC(=O)NCC(=O)N1CCC[C@H]1C(=O)N[C@@H](CO)C(=O)N[C@@H](CO)C(=O)NCC(=O)N[C@@H](C)C(=O)N1CCC[C@H]1C(=O)N1CCC[C@H]1C(=O)N1CCC[C@H]1C(=O)N[C@@H](CO)C(=O)O [HEC-PT92],0.104,1.85,0.0779
CC[C@H](C)[C@H](NC(=O)[C@H](CO)NC(=O)[C@H](Cc1ccc(O)cc1)NC(=O)[C@H](CC(=O)O)NC(=O)[C@H](CO)NC(=O)[C@@H](NC(=O)[C@](C)(Cc1ccccc1F)NC(=O)[C@@H](NC(=O)CNC(=O)[C@H](CCC(N)=O)NC(=O)C(C)(C)NC(=O)[C@@H](N)Cc1ccc(O)cc1)[C@@H](C)O)[C@@H](C)O)C(=O)N[C@@H](CC(C)C)C(=O)N[C@@H](CC(C)C)C(=O)N[C@@H](CC(=O)O)C(=O)N[C@@H](CCC(=O)O)C(=O)N[C@@H](CCCCNC(=O)COCCOCCNC(=O)CC[C@H](NC(=O)CCCCCCCCCCCCCCCCC(=O)O)C(=O)O)C(=O)N[C@@H](CCCNC(=N)N)C(=O)N[C@@H](CCC(N)=O)C(=O)NC(C)(C)C(=O)N[C@@H](CCC(=O)O)C(=O)N[C@@H](Cc1ccccc1)C(=O)N[C@H](C(=O)N[C@@H](CCC(=O)O)C(=O)N[C@@H](Cc1c[nH]c2ccccc12)C(=O)N[C@@H](CC(C)C)C(=O)N[C@@H](CC(C)C)C(=O)N[C@@H](C)C(=O)NCC(=O)NCC(=O)N1CCC[C@H]1C(=O)N[C@@H](CO)C(=O)N[C@@H](CO)C(=O)NCC(=O)N[C@@H](C)C(=O)N1CCC[C@H]1C(=O)N1CCC[C@H]1C(=O)N1CCC[C@H]1C(=O)N[C@@H](CO)C(N)=O)[C@@H](C)CC [HEC-PT110],0.116,1.33,0.045
CC[C@H](C)[C@H](NC(=O)[C@H](Cc1ccccc1)NC(=O)[C@H](C)NC(=O)[C@H](CCC(N)=O)NC(=O)[C@H](CCC(N)=O)NC(=O)[C@H](C)NC(=O)[C@H](CCCCNC(=O)COCCOCCNC(=O)CC[C@H](NC(=O)CCCCCCCCCCCCCCCCCCC(=O)O)C(=O)O)NC(=O)[C@H](CCC(=O)O)NC(=O)[C@H](CC(=O)O)NC(=O)[C@H](CC(C)C)NC(=O)[C@H](CC(C)C)NC(=O)[C@@H](NC(=O)[C@H](CO)NC(=O)[C@H](Cc1ccc(O)cc1)NC(=O)[C@H](CC(=O)O)NC(=O)[C@H](CO)NC(=O)[C@@H](NC(=O)[C@](C)(Cc1ccccc1F)NC(=O)[C@@H](NC(=O)CNC(=O)[C@H](Cc1c[nH]cn1)NC(=O)C(C)(C)NC(=O)[C@@H](N)Cc1ccc(O)cc1)[C@@H](C)O)[C@@H](C)O)[C@@H](C)CC)C(=O)N[C@@H](CCC(=O)O)C(=O)N[C@@H](Cc1ccc(O)cc1)C(=O)N[C@@H](CC(C)C)C(=O)N[C@@H](CC(C)C)C(=O)N[C@@H](C)C(=O)NCC(=O)NCC(=O)N1CCC[C@H]1C(=O)N[C@@H](CO)C(=O)N[C@@H](CO)C(=O)NCC(=O)N[C@@H](C)C(=O)N1CCC[C@H]1C(=O)N1CCC[C@H]1C(=O)N1CCC[C@H]1C(=O)N[C@@H](CO)C(=O)O [HEC-PT81],0.409,0.382,0.132
CC[C@H](C)[C@H](NC(=O)[C@H](CCCCN)NC(=O)[C@H](CC(=O)O)NC(=O)[C@H](CCCCNC(=O)COCCOCCNC(=O)CC[C@H](NC(=O)CCCCCCCCCCCCCCCCC(=O)O)C(=O)O)NC(=O)[C@H](CC(C)C)NC(=O)[C@@H](NC(=O)[C@H](CO)NC(=O)[C@H](Cc1ccc(O)cc1)NC(=O)[C@H](CC(=O)O)NC(=O)[C@H](CO)NC(=O)[C@@H](NC(=O)[C@](C)(Cc1ccccc1F)NC(=O)[C@@H](NC(=O)CNC(=O)[C@H](CCC(N)=O)NC(=O)C(C)(C)NC(=O)[C@@H](N)Cc1ccc(O)cc1)[C@@H](C)O)[C@@H](C)O)[C@@H](C)CC)C(=O)N[C@@H](C)C(=O)N[C@@H](CCC(N)=O)C(=O)NC(C)(C)C(=O)N[C@@H](C)C(=O)N[C@@H](Cc1ccccc1)C(=O)N[C@H](C(=O)N[C@@H](CCC(=O)O)C(=O)N[C@@H](Cc1ccc(O)cc1)C(=O)N[C@@H](CC(C)C)C(=O)N[C@@H](CC(C)C)C(=O)N[C@@H](C)C(=O)NCC(=O)NCC(=O)N1CCC[C@H]1C(=O)N[C@@H](CO)C(=O)N[C@@H](CO)C(=O)NCC(=O)N[C@@H](C)C(=O)N1CCC[C@H]1C(=O)N1CCC[C@H]1C(=O)N1CCC[C@H]1C(=O)N[C@@H](CO)C(N)=O)[C@@H](C)CC [HEC-PT139] (H-Y[Aib]QGT[αMePhe(2-F)]TSDYSILK([AEEA-γGlu-C18 diacid])DKIAQ[Aib]AFIEYLLAGGPSSGAPPPS-NH2),0.158,0.0821,0.0359
CC[C@H](C)[C@H](NC(=O)[C@H](CCCCN)NC(=O)[C@H](CC(=O)O)NC(=O)[C@H](CCCCNC(=O)COCCOCCNC(=O)CC[C@H](NC(=O)CCCCCCCCCCCCCCCCC(=O)O)C(=O)O)NC(=O)[C@H](CC(C)C)NC(=O)[C@@H](NC(=O)[C@H](CO)NC(=O)[C@H](Cc1ccc(O)cc1)NC(=O)[C@H](CC(=O)O)NC(=O)[C@H](CO)NC(=O)[C@@H](NC(=O)[C@](C)(Cc1ccccc1F)NC(=O)[C@@H](NC(=O)CNC(=O)[C@H](CCC(N)=O)NC(=O)C(C)(C)NC(=O)[C@@H](N)Cc1ccc(O)cc1)[C@@H](C)O)[C@@H](C)O)[C@@H](C)CC)C(=O)N[C@@H](C)C(=O)N[C@@H](CCC(N)=O)C(=O)N[C@@H](CCCCN)C(=O)N[C@@H](C)C(=O)N[C@@H](Cc1ccccc1)C(=O)N[C@H](C(=O)N[C@@H](CCC(=O)O)C(=O)N[C@@H](Cc1ccc(O)cc1)C(=O)N[C@@H](CC(C)C)C(=O)N[C@@H](CC(C)C)C(=O)N[C@@H](CCC(=O)O)C(=O)NCC(=O)NCC(=O)N1CCC[C@H]1C(=O)N[C@@H](CO)C(=O)N[C@@H](CO)C(=O)NCC(=O)N[C@@H](C)C(=O)N1CCC[C@H]1C(=O)N1CCC[C@H]1C(=O)N1CCC[C@H]1C(=O)N[C@@H](CO)C(N)=O)[C@@H](C)CC [HEC-PT141] (H-Y[Aib]QGT[αMePhe(2-F)]TSDYSILK([AEEA-γGlu-C18 diacid])DKIAQKAFIEYLLEGGPSSGAPPPS-NH2),0.163,0.216,0.0955
